# Test results as given in the NIST ThermoML archive (doi:10.1021/acs.jced.5b00256).
# Numbers after ± are expanded uncertainties.
# Columns and labels:
# [1] = refractive index (Na D-line) (dimensionless); details: 100 kPa, Liquid, Standard Abbe refractometry
# [2] = 101.33 kPa, Liquid, Pycnometric method
# [3] = relative permittivity at various frequencies (dimensionless); details: 100 kPa, Liquid, Frequency=2 MHz, Parallel plate capacitor
# [4] = relative permittivity at various frequencies (dimensionless); xn = mol fraction of the nth substance listed; details: 100 kPa, Liquid, Frequency=2 MHz, Parallel plate capacitor, x1 = 1
# [5] = refractive index (Na D-line) (dimensionless); xn = mol fraction of the nth substance listed; details: 100 kPa, Liquid, Standard Abbe refractometry, x1 = 1
refractive index ([1]; 303.15 K),refractive index ([1]; 313.15 K),refractive index ([1]; 323.15 K),refractive index ([1]; 333.15 K),mass density ([2]; 303.15 K) [kg/m3],mass density ([2]; 313.15 K) [kg/m3],mass density ([2]; 323.15 K) [kg/m3],mass density ([2]; 333.15 K) [kg/m3],relative permittivity ([3]; 303.15 K),relative permittivity ([3]; 313.15 K),relative permittivity ([3]; 323.15 K),relative permittivity ([3]; 333.15 K),relative permittivity ([4]; 303.15 K),relative permittivity ([4]; 313.15 K),relative permittivity ([4]; 323.15 K),relative permittivity ([4]; 333.15 K),refractive index ([5]; 303.15 K),refractive index ([5]; 313.15 K),refractive index ([5]; 323.15 K),refractive index ([5]; 333.15 K),Structure (SMILES)
1.383 ± 0.002,1.38 ± 0.002,1.376 ± 0.002,1.371 ± 0.002,793.9 ± 6,791.7 ± 6,784.4 ± 6,775.6 ± 6,19.49 ± 0.6,18.53 ± 0.6,17.59 ± 0.6,16.03 ± 0.6,–,–,–,–,–,–,–,–,CCCO [propan-1-ol]
1.56 ± 0.002,1.558 ± 0.002,1.553 ± 0.002,1.55 ± 0.002,1467.6 ± 6.1,–,–,–,7.01 ± 0.6,6.85 ± 0.6,6.74 ± 0.6,6.6 ± 0.6,–,–,–,–,–,–,–,–,COc1cccc(Br)c1 [1-bromo-3-methoxybenzene]
–,–,–,–,–,–,–,–,–,–,–,–,19.49 ± 0.6,18.53 ± 0.6,17.59 ± 0.6,16.03 ± 0.6,1.383 ± 0.002,1.38 ± 0.002,1.376 ± 0.002,1.371 ± 0.002,CCCO [propan-1-ol] + COc1cccc(Br)c1
